Test results as given in article PMC3222648, “Inotropic Action of the Puberty Hormone Kisspeptin in Rat, Mouse and Human: Cardiovascular Distribution and Characteristics of the Kisspeptin Receptor” (PLoS ONE, 2011).
Bridges are numbered along the chain shown (N, C = ends). Where no end group is shown, it is not given here.

Tests used:
[1] = target: T1, kisspeptin receptor (Homo sapiens, UniProt Q969F8); experiment: Inotropic activity in human paced atrial strips
T1 construct: cryostat-cut sections of human (15 µm) or rat (10 µm) heart; from tissue; host or cells: human right atria (control, dilated cardiomyopathy, ischaemic heart disease), cryostat sections
Experimental: (§1) Paired rat or mouse atria, or 4 mm strips of human atrial appendage, were mounted in 10 ml organ baths containing oxygenated Krebs solution at 37°C as described previously. […] Experiments were terminated by the addition of 6.7 mM CaCl2 (final bath concentration 8.95 mM) and responses expressed as a % of this CaCl2 maximum. Radioligand binding study data were analyzed using the iterative, non-linear curve fitting programs EBDA and LIGAND in the KELL package (Biosoft, Cambridge, UK). Pooled KD, BMAX and Hill slopes (nH) were expressed as mean±SEM and normalized to protein concentrations. […] Where appropriate, values were compared by one-way analysis of variance (ANOVA). In all cases P<0.05 was considered statistically significant and n-values were the number of animals or patients from which data were obtained.

[2] = target: kisspeptin receptor (Rattus norvegicus, UniProt Q924U1); experiment: Inotropic activity in rat paced paired atria; design: Paired rat or mouse atria; from tissue; host or cells: rat paired atria; details: read-out: EMAX (maximum positive inotropic response)
Experimental: as §1

[3] = system: endothelium-denuded rat aortic rings; experiment: Vasoconstrictor activity in endothelium-denuded rat aorta; details: mean ± SEM, ET-1 n = 7, KP-10 tissues from 4 animals, KP-54 tissues from 3 animals
Experimental: Rat thoracic aorta was cleaned of connective tissue and cut into 4 mm rings and the endothelial layer removed by gentle rubbing. Tissues were set to a basal tension at which the maximum response to 100 mM KCl was generated and subsequent responses to kisspeptins were expressed as % of this KCl response. Aortic rings were then contracted with 10 µM phenylephrine and 1 µM ACh was added; a reduction in the phenylephrine response of <10% was taken as evidence of removal of endothelium. […] Experiments were terminated by the addition of 100 mM KCl and agonist responses were expressed as a % of this KCl maximum.
Radioligand binding study data were analyzed using the iterative, non-linear curve fitting programs EBDA and LIGAND in the KELL package (Biosoft, Cambridge, UK). Pooled KD, BMAX and Hill slopes (nH) were expressed as mean±SEM and normalized to protein concentrations. In vitro pharmacology data agonist responses were expressed as %CaCl2 response in the paced atrial tissues and %KCl in the vasoconstrictor studies and data were fitted to a four parameter logistic equation using an iterative curve-fitting program (FigSys, Biosoft, Cambridge, UK) to obtain values for potency (pD2: the negative logarithm to the base 10 of the EC50) and maximum response (EMAX: %CaCl2 or %KCl, respectively) expressed as mean±SEM. Where appropriate, values were compared by one-way analysis of variance (ANOVA). In all cases P<0.05 was considered statistically significant and n-values were the number of animals or patients from which data were obtained.

T1 sequence (Q969F8 whole entry): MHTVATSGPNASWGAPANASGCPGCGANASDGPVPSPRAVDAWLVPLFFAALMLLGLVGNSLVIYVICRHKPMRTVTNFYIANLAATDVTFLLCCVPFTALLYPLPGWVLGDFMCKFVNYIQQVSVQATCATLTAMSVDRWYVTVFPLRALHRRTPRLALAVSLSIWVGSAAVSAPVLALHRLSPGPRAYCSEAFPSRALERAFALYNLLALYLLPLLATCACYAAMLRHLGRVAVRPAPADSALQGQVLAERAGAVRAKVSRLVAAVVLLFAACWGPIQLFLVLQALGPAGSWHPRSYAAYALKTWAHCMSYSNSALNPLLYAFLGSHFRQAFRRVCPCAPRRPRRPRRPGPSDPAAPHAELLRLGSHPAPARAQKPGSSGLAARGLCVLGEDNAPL
kisspeptin receptor (Rattus norvegicus, UniProt Q924U1), sequence (Q924U1 whole entry): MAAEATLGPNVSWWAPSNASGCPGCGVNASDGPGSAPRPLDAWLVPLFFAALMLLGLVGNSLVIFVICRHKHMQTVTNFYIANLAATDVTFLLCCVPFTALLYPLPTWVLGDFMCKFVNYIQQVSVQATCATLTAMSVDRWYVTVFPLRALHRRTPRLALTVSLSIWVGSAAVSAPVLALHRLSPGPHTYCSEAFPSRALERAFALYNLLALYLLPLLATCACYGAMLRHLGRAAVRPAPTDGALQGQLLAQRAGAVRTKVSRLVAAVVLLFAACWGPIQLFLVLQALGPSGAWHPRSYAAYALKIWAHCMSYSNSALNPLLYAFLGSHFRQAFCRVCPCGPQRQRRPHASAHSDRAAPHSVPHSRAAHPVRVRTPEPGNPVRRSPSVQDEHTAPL

Compound	EC50 [1] [nM]	Emax ([1]; % of CaCl2 maximum (8.95 mM final), human atrial strips, mean ± SEM, n = 5, read-out: EMAX (maximum positive inotropic response)) [%]	Emax [2] [%]	EMAX (maximum vasoconstrictor response) ([3]; % of 100 mM KCl maximum, endothelium-denuded rat aorta) [% KCl]	pD2 (vasoconstriction) ([3]; endothelium-denuded rat thoracic aortic rings, KP-10, KP-54 10^−12–3×10^−9 M, ET-1 10^−10–3×10^−7 M)
CC(C)C[C@H](NC(=O)CNC(=O)[C@H](Cc1ccccc1)NC(=O)[C@H](CO)NC(=O)[C@H](CC(N)=O)NC(=O)[C@H](Cc1c[nH]c2ccccc12)NC(=O)[C@H](CC(N)=O)NC(=O)[C@@H](N)Cc1ccc(O)cc1)C(=O)N[C@@H](CCCNC(=N)N)C(=O)N[C@@H](Cc1ccccc1)C(N)=O [KP-10]	0.102	59 ± 10	31 ± 5		
ET-1: ET-1 (human) from Peptide Institute, control vasoconstrictor (CSCSSLMDKECVYFCHLDIIW; disulfide 1-15, 3-11; ends not checked; UniProt P05305 53-73, looked up)				99±1	8.13±0.11
